Laboratory results reported in patent US20230416262A1, “TRPML MODULATORS” (Casma Therapeutics, Inc., priority 2020, published 2023).
pEC50: −log10 of the molar value.

Tests used:
TFEB = TFEB nuclear translocation assay; assay type: cell-based; conditions: Homo sapiens; HeLa wt or HeLa TRPML1 KO cells, treated for 2 hrs; ratio of nuclear to ring-region TFEB intensity
In short: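 HeLa wild-type or TRPML1 KO cells treated 2 h with compound at 37 °C, PFA-fixed, immunostained for TFEB (Alexa 488) with Hoechst nuclei. Imaged at ×20, four fields/well. Value is ratio of nuclear to perinuclear-ring TFEB intensity, with nuclei counts.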

THP-1 cells = experiment: Lamp1 lysosomal exocytosis assay; assay type: cell-based; conditions: Homo sapiens, 55 min, 55 min incubation, top dose 20 μM
In short: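 THP-1 cells (1e5/well) exposed to a 7-point 3-fold compound series, top final 20 μM, for 55 min at 37°C. Surface Lamp1 then stained with Lamp1-PE on ice in buffer containing 80 μM Dynasore, and read by flow cytometry as PE geometric mean on live, sytox-negative singlets.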

Structure (SMILES)	pEC50 (TFEB)	pEC50 (THP-1 cells)
CN(Cc1ccccc1)C(=O)N1CCC2(CC1)CN(S(=O)(=O)c1ccc(C(F)F)cc1)c1ccccc12 [Compound I-178, N-benzyl-1-((4-(difluoromethyl)phenyl)sulfonyl)-N-methylspiro[indoline-3,4′-piperidine]-1′-carboxamide]	5.10 to 5.70	6.00 to 6.29
CN(C)S(=O)(=O)c1ccc(S(=O)(=O)N2CC3(CCN(C4CCOC4)CC3)c3ccccc32)cc1 (stereo not drawn) [Compound I-103, N,N-dimethyl-4-{[1′-(oxolan-3-yl)-1,2-dihydrospiro[indole-3,4′-piperidin]-1-yl]sulfonyl}benzene-1-sulfonamide]	5.10 to 5.70	≤ 5.30
O=C(OCc1ccccc1)N1CCC2(CC1)CN(S(=O)(=O)c1ccc3c(c1)CCS3(=O)=O)c1ccccc12 [Compound I-182, benzyl 1-((1,1-dioxido-2,3-dihydrobenzo[b]thiophen-5-yl)sulfonyl)spiro[indoline-3,4′-piperidine]-1′-carboxylate]	≥ 5.70	≤ 5.30
CN(C)S(=O)(=O)c1ccc(S(=O)(=O)N2CC3(CCN(C(=O)OCc4ccccc4)CC3)c3ccccc32)cc1 [Compound I-104]	≥ 5.70	≥ 6.30
O=S(=O)(c1ccc(C(F)F)cc1)N1CC2(CCN(Cc3ccncc3)CC2)c2ccccc21 [Compound I-166, 1-[4-(difluoromethyl)benzenesulfonyl]-1′-[(pyridin-4-yl)methyl]-1,2-dihydrospiro[indole-3,4′-piperidine]]	≥ 5.70	≤ 5.30
O=S(=O)(c1ccc(C(F)F)cc1)N1CC2(CCN(Cc3ccccc3)CC2)c2ccccc21 [Compound I-168, 1′-benzyl-1-[4-(difluoromethyl)benzenesulfonyl]-1,2-dihydrospiro[indole-3,4′-piperidine]]	≥ 5.70	≤ 5.30
CC(C)OC(=O)N1CCC2(CC1)CN(S(=O)(=O)c1ccc(C(F)F)cc1)c1ccccc12 [Compound I-160, propan-2-yl 1-[4-(difluoromethyl)benzenesulfonyl]-1,2-dihydrospiro[indole-3,4′-piperidine]-1′-carboxylate]	≥ 5.70	≥ 6.30
CN(C)S(=O)(=O)c1ccc(S(=O)(=O)N2CC3(CCN(CC4CCOCC4)CC3)c3ccccc32)cc1 [Compound I-98, N,N-dimethyl-4-({1′-[(oxan-4-yl)methyl]-1,2-dihydrospiro[indole-3,4′-piperidin]-1-yl}sulfonyl)benzene-1-sulfonamide]	≥ 5.70	5.30 to 6.00
O=S(=O)(c1ccc2c(c1)CCC(C(F)F)O2)N1CC2(CCCC2)c2ccccc21 (stereo not drawn) [Compound I-35, 1′-{[2-(difluoromethyl)-3,4-dihydro-2H-1-benzopyran-6-yl]sulfonyl}-1′,2′-dihydrospiro[cyclopentane-1,3′-indole]]	5.10 to 5.70	≤ 5.30
O=C(OCc1ccccc1)N1CCC2(CC1)CN(C(=O)Cc1ccc(C(F)F)cc1)c1ccccc12 [Compound I-246, benzyl 1-(2-(4-(difluoromethyl)phenyl)acetyl)spiro[indoline-3,4′-piperidine]-1′-carboxylate]	≤ 5.00	≤ 5.30
CN(C)S(=O)(=O)c1ccc(S(=O)(=O)N2CCC3(CCN(CC(F)(F)F)CC3)c3ccccc32)cc1 [Compound I-126, N,N-dimethyl-4-((1-(2,2,2-trifluoroethyl)-2′,3′-dihydro-1′H-spiro[piperidine-4,4′-quinolin]-1′-yl)sulfonyl)benzenesulfonamide]	≥ 5.70	≤ 5.30
Cc1ccc2c(c1)N(S(=O)(=O)c1ccc(S(=N)(=O)N(C)C)cc1)CC21CCCCC1 (stereo not drawn) [Compound I-149, N,N-dimethyl-4-({6′-methyl-1′,2′-dihydrospiro[cyclohexane-1,3′-indol]-1′-yl}sulfonyl)benzene-1-sulfonoimidamide]	≥ 5.70	≥ 6.30
CN(C)S(=O)(=O)c1ccc(S(=O)(=O)N2CC3(CN(C(=O)OCc4ccccc4)C3)c3ccccc32)cc1 [Compound I-105, benzyl 1′-[4-(dimethylsulfamoyl)benzenesulfonyl]-1′,2′-dihydrospiro[azetidine-3,3′-indole]-1-carboxylate]	≥ 5.70	≤ 5.30

Next, values leading:

pEC50 (TFEB)	pEC50 (THP-1 cells)	Structure (SMILES)
5.10 to 5.70	≤ 5.30	O=S(=O)(c1ccc(C(F)F)cc1)N1CC2(CCN(CC(F)(F)F)C2)c2ccccc21 (stereo not drawn) [Compound I-92, 1-[4-(difluoromethyl)benzenesulfonyl]-1′-(2,2,2-trifluoroethyl)-1,2-dihydrospiro[indole-3,3′-pyrrolidine]]
5.10 to 5.70	≤ 5.30	O=S(=O)(c1ccc(C2CC2(F)F)cc1)N1CC2(CCCC2)c2ccccc21 (stereo not drawn) [Compound I-48, 1′-[4-(2,2-difluorocyclopropyl)benzenesulfonyl]-1′,2′-dihydrospiro[cyclopentane-1,3′-indole]]
≥ 5.70	≤ 5.30	O=C(OCc1ccccc1)N1CCC2(CC1)CN(S(=O)(=O)c1ccc(C(F)F)cc1)c1c(F)cccc12 [Compound I-133, benzyl 1-((4-(difluoromethyl)phenyl)sulfonyl)-7-fluorospiro[indoline-3,4′-piperidine]-1′-carboxylate]
≥ 5.70	6.00 to 6.29	O=C(OCc1ccccc1)N1CCC2(CC1)CN(S(=O)(=O)c1ccc(C(F)(F)F)nc1)c1ccccc12 [Compound I-187, benzyl 1-((6-(trifluoromethyl)pyridin-3-yl)sulfonyl)spiro[indoline-3,4′-piperidine]-1′-carboxylate]
≥ 5.70	≤ 5.30	O=C(Nc1ccccc1)C1CCC2(CC1)CN(S(=O)(=O)c1ccc(C(F)F)cc1)c1ccccc12 (stereo not drawn) [Compound I-230, 1′-((4-(difluoromethyl)phenyl)sulfonyl)-N-phenylspiro[cyclohexane-1,3′-indoline]-4-carboxamide]
≤ 5.00	≤ 5.30	CN(C)S(=O)(=O)c1ccc(S(=O)(=O)N2CC3(CCCC3)n3nccc32)cc1 [Compound I-124, 4-({1′,2′-dihydrospiro[cyclopentane-1,3′-pyrazolo[1,5-a]imidazol]-1′-yl}sulfonyl)-N,N-dimethylbenzene-1-sulfonamide]
≥ 5.70	≤ 5.30	CC1(C)COc2ccc(S(=O)(=O)N3CC4(CCCC4)c4ccccc43)cc21 [Compound I-5, 1′-[(3,3-dimethyl-2,3-dihydro-1-benzofuran-5-yl)sulfonyl]-1′,2′-dihydrospiro[cyclopentane-1,3′-indole]]
≥ 5.70	6.00 to 6.29	O=C(NC1CCOc2ccccc21)N1CCC2(CC1)CN(S(=O)(=O)c1ccc(C(F)F)cc1)c1ccccc12 (stereo not drawn) [Compound I-223, N-(chroman-4-yl)-1-((4-(difluoromethyl)phenyl)sulfonyl)spiro[indoline-3,4′-piperidine]-1′-carboxamide]
≥ 5.70	≤ 5.30	CN(C)S(=O)(=O)c1ccc(S(=O)(=O)N2CC3(CCCC3)Oc3ccccc32)cc1 [Compound I-116, 4-((3,4-dihydrospiro[1,4-benzoxazine-2,1′-cyclopentan]-4-yl}sulfonyl)-N,N-dimethylbenzene-1-sulfonamide]
≥ 5.70	≤ 5.30	O=C(NC1COc2ccccc2C1)N1CCC2(CC1)CN(S(=O)(=O)c1ccc(C(F)F)cc1)c1ccccc12 (stereo not drawn) [Compound I-222, N-(chroman-3-yl)-1-((4-(difluoromethyl)phenyl)sulfonyl)spiro[indoline-3,4′-piperidine]-1′-carboxamide]
≥ 5.70	≥ 6.30	O=C(OCc1ccccc1)N1CCC2(CC1)CN(S(=O)(=O)Cc1ccc(C(F)F)cc1)c1ccccc12 [Compound I-250, benzyl 1-((4-(difluoromethyl)benzyl)sulfonyl)spiro[indoline-3,4′-piperidine]-1′-carboxylate]
≥ 5.70	≥ 6.30	CC(C)S(=O)(=O)c1ccc(S(=O)(=O)N2CC3(CCN(C(=O)OCc4ccccc4)CC3)c3ccccc32)cc1 [Compound I-181, benzyl 1-[4-(propane-2-sulfonyl)benzenesulfonyl]-1,2-dihydrospiro[indole-3,4′-piperidine]-1′-carboxylate]
5.10 to 5.70	≤ 5.30	CN(C)S(=O)(=O)c1ccc(S(=O)(=O)N2CC3(CCN(C(=O)C(C)(C)C)C3)c3ccccc32)cc1 (stereo not drawn) [Compound I-73, 4-{[1′-(2,2-dimethylpropanoyl)-1,2-dihydrospiro[indole-3,3′-pyrrolidin]-1-yl]sulfonyl}-N,N-dimethylbenzene-1-sulfonamide]
5.10 to 5.70	5.30 to 6.00	O=C(c1ccccc1)N1CCC2(CC1)CN(S(=O)(=O)c1ccc(C(F)F)cc1)c1ccccc12 [Compound I-161, 1′-benzoyl-1-[4-(difluoromethyl)benzenesulfonyl]-1,2-dihydrospiro[indole-3,4′-piperidine]]
≥ 5.70	5.30 to 6.00	CN(C)S(=O)(=O)c1ccc(S(=O)(=O)N2CC3(CCN(C(=O)C(C)(C)C)CC3)c3ccccc32)cc1 [Compound I-118, 4-{[1′-(2,2-dimethylpropanoyl)-1,2-dihydrospiro[indole-3,4′-piperidin]-1-yl]sulfonyl}-N,N-dimethylbenzene-1-sulfonamide]
5.10 to 5.70	≤ 5.30	O=S(=O)(c1ccc(OC(F)(F)F)cc1)N1CC2(CCCC2)c2ccccc21 [Compound I-31, 1′-[4-(trifluoromethoxy)benzenesulfonyl]-1′,2′-dihydrospiro[cyclopentane-1,3′-indole]]
≥ 5.70	≥ 6.30	CS(=O)(=O)c1ccc(S(=O)(=O)N2CC3(CCN(C(=O)OCc4ccccc4)CC3)c3ccccc32)cc1 [Compound I-180]
